From the kinase profiling compilation of Christmann-Franck et al. (2016)
“And” between values parts separate entries of the source, which are not always exact repeats. Equal entries are not always repeated.

Columns and labels:
Assay in all cases: KINOMEscan competition binding
Conditions in all cases: compound 10.0 µM
[1] = system: BMX (human), P51813 [V600E]
CAMK1D (human) = CAMK1D (human) (UniProt Q8IU85)
CDK2 (human) = CDK2 (human) (UniProt P24941)
CLK1 (human) = CLK1 (human) (UniProt P49759)
CSNK1A1L (human) = CSNK1A1L (human) (UniProt Q8N752)
CSNK1A1L (human), sequence (Q8N752 whole entry, looked up): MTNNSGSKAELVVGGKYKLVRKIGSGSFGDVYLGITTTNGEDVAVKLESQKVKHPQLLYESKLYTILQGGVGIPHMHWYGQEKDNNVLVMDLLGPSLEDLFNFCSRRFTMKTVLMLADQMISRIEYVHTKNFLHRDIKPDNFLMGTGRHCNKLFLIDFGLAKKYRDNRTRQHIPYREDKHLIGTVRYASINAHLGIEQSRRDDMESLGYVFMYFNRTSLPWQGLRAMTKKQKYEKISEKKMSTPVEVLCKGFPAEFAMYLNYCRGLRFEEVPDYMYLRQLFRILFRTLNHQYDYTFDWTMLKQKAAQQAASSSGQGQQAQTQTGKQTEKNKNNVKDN

CSNK2A1 (human) = CSNK2A1 (human) (UniProt P68400)
DYRK1B (human) = DYRK1B (human) (UniProt Q9Y463)
EGFR (human) = EGFR (human) (UniProt P00533)
[2] = system: EGFR (human), P00533 [A750P; 747-749 del]
EIF2AK2 (human) = EIF2AK2 (human) (UniProt P19525)
EPHA7 (human) = EPHA7 (human) (UniProt Q15375)
FLT1 (human) = FLT1 (human) (UniProt P17948)
LATS1 (human) = LATS1 (human) (UniProt O95835)
LIMK2 (human) = LIMK2 (human) (UniProt P53671)
LIMK2 (human), sequence (P53671 whole entry, looked up): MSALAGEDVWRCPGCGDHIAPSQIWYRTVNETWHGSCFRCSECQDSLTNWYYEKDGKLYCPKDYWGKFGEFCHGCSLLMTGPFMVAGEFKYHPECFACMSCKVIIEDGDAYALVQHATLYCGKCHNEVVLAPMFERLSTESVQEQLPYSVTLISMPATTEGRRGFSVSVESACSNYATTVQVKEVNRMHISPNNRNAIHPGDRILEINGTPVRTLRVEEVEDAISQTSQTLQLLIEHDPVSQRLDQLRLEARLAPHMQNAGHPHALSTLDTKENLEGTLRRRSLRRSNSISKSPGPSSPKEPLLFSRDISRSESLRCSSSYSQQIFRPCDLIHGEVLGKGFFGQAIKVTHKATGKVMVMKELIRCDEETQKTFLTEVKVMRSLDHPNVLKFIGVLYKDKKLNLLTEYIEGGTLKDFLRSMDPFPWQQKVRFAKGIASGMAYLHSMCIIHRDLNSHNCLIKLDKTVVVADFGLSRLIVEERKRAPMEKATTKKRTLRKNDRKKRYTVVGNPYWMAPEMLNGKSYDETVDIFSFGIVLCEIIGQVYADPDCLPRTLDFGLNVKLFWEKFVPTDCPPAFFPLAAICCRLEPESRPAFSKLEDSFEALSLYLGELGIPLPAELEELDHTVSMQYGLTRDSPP

MAP2K4 (human) = MAP2K4 (human) (UniProt P45985)
MAP2K7 (human) = MAP2K7 (human) (UniProt O14733)
MAP4K4 (human) = MAP4K4 (human) (UniProt O95819)
MAP4K4 (human), sequence (O95819 whole entry, looked up): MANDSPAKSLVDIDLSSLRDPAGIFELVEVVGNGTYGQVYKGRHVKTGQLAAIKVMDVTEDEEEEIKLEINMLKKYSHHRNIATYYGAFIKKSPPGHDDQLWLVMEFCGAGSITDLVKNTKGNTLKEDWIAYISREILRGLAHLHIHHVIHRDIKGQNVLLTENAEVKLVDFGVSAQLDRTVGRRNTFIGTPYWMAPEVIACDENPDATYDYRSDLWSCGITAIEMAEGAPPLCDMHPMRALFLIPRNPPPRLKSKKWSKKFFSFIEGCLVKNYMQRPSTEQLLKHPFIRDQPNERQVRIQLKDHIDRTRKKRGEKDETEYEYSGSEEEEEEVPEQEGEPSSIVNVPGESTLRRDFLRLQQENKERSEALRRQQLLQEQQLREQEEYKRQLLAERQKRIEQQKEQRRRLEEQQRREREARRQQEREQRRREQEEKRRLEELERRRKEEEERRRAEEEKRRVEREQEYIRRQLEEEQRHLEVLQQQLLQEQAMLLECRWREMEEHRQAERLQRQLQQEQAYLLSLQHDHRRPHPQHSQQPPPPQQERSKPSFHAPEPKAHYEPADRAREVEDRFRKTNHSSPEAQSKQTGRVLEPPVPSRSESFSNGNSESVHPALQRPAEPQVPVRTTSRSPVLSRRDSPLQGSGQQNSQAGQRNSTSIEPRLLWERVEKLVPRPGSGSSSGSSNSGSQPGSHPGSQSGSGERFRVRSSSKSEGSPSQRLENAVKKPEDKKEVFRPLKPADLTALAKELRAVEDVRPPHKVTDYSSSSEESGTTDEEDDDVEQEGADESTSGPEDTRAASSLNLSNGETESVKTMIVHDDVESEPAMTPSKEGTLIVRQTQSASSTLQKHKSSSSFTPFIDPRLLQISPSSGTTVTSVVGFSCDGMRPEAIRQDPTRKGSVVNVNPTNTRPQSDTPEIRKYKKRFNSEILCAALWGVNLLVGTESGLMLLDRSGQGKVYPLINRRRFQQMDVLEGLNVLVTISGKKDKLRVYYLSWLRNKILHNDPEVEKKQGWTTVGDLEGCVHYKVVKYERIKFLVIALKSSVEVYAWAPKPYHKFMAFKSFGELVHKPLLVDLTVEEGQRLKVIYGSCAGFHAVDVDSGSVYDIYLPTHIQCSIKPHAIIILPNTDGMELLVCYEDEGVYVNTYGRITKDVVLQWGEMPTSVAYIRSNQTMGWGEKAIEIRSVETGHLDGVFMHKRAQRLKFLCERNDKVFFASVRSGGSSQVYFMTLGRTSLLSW

MAPK10 (human) = MAPK10 (human) (UniProt P53779)
MAPK6 (human) = MAPK6 (human) (UniProt Q16659)
MARK3 (human) = MARK3 (human) (UniProt P27448)
MERTK (human) = MERTK (human) (UniProt Q12866)
MST4 (human) = MST4 (human) (UniProt Q9P289)
MTOR (human) = MTOR (human) (UniProt P42345)
MYLK3 (human) = MYLK3 (human) (UniProt Q32MK0)
NTRK1 (human) = NTRK1 (human) (UniProt P04629)
NUAK1 (human) = NUAK1 (human) (UniProt O60285)
NUAK1 (human), sequence (O60285 whole entry, looked up): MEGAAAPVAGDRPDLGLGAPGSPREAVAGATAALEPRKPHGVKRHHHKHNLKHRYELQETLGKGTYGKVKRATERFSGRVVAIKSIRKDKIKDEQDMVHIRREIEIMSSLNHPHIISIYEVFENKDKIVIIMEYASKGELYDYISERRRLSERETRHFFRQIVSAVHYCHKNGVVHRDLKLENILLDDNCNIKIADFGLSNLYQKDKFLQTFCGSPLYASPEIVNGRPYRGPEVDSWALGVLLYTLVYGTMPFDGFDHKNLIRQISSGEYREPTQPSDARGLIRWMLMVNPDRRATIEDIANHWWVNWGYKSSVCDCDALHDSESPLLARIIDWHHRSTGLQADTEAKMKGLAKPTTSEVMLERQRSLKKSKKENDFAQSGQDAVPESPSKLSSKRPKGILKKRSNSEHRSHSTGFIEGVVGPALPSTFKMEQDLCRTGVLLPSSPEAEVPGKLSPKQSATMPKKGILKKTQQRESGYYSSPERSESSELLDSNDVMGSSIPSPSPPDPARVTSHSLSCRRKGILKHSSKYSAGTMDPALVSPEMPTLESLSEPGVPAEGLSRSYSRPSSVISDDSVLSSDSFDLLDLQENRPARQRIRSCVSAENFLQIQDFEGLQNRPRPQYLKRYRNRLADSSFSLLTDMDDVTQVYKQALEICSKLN

PAK4 (human) = PAK4 (human) (UniProt O96013)
PAK4 (human), sequence (O96013 whole entry, looked up): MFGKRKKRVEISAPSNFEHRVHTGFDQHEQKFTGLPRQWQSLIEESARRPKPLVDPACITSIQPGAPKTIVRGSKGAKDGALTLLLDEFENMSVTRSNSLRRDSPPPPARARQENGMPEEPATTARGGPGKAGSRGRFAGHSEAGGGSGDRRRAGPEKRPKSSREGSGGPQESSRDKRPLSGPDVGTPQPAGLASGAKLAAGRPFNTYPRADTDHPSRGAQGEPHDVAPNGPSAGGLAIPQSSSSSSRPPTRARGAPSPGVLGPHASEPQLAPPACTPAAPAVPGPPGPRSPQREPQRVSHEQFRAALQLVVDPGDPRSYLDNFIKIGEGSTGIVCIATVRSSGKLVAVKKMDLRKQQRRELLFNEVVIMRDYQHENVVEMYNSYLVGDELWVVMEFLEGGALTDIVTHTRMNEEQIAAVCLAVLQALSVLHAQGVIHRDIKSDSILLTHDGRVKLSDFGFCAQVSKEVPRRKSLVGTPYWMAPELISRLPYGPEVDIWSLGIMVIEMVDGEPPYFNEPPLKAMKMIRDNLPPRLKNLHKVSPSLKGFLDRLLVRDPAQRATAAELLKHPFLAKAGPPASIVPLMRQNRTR

PIK3CA (human) = PIK3CA (human) (UniProt P42336)
[3] = system: PIK3CA (human), P42336 [E542K]
RPS6KA2 KD2 (human) = RPS6KA2 KD2 (human) (UniProt Q15349)
RPS6KA4 KD2 (human) = RPS6KA4 KD2 (human) (UniProt O75676)
RPS6KA6 KD2 (human) = RPS6KA6 KD2 (human) (UniProt Q9UK32)
RPS6KA6 KD2 (human), sequence (Q9UK32 whole entry, looked up): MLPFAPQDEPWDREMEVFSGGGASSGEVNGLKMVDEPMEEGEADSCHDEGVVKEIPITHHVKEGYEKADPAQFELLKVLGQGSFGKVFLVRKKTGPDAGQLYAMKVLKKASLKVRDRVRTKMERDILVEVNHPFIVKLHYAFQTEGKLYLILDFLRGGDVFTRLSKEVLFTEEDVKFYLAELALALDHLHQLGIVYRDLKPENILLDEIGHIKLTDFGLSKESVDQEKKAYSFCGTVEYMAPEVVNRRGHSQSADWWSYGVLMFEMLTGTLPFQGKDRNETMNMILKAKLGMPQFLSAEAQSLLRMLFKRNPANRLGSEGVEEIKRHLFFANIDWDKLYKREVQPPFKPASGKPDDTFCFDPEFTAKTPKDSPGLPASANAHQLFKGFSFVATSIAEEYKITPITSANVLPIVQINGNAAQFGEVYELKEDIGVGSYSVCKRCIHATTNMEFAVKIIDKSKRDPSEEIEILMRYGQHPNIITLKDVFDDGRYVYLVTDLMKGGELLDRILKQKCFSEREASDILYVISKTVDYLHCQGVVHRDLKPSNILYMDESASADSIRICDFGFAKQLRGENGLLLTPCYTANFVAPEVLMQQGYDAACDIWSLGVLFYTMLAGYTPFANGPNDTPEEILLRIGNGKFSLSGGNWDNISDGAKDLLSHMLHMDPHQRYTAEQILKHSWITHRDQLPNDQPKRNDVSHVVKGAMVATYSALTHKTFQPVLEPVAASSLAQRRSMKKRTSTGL

SRC (human) = SRC (human) (UniProt P12931)
SRC (human), sequence (P12931 whole entry, looked up): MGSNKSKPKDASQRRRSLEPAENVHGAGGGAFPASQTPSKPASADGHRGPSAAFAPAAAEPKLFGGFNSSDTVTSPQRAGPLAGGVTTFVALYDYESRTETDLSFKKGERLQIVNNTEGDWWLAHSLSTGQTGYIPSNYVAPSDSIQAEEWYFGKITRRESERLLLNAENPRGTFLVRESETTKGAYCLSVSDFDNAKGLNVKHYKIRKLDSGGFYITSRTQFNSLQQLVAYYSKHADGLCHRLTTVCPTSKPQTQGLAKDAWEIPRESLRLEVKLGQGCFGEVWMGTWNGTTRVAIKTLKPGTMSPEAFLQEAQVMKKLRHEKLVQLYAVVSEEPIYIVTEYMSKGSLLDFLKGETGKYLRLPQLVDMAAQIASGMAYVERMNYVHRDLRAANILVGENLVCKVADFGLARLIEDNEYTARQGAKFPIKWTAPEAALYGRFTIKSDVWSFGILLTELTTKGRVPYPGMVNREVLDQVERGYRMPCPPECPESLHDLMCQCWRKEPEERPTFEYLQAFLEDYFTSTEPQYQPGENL

STK10 (human) = STK10 (human) (UniProt O94804)
STK39 (human) = STK39 (human) (UniProt Q9UEW8)
TEC (human) = TEC (human) (UniProt P42680)
TNK2 (human) = TNK2 (human) (UniProt Q07912)
[4] = target: TYK2 JH1 catalytic (human) (UniProt P29597)
ULK2 (human) = ULK2 (human) (UniProt Q8IYT8)
YSK4 (human) = YSK4 (human) (UniProt Q56UN5)

Row | Compound | kinase still bound, per cent of control [1] [%] | kinase still bound, per cent of control (CAMK1D (human)) [%] | kinase still bound, per cent of control (CDK2 (human)) [%] | kinase still bound, per cent of control (CLK1 (human)) [%] | kinase still bound, per cent of control (CSNK1A1L (human)) [%] | kinase still bound, per cent of control (CSNK2A1 (human)) [%] | kinase still bound, per cent of control (DYRK1B (human)) [%] | kinase still bound, per cent of control (EGFR (human)) [%] | kinase still bound, per cent of control [2] [%] | kinase still bound, per cent of control (EIF2AK2 (human)) [%] | kinase still bound, per cent of control (EPHA7 (human)) [%] | kinase still bound, per cent of control (FLT1 (human)) [%] | kinase still bound, per cent of control (LATS1 (human)) [%] | kinase still bound, per cent of control (LIMK2 (human)) [%] | kinase still bound, per cent of control (MAP2K4 (human)) [%] | kinase still bound, per cent of control (MAP2K7 (human)) [%] | kinase still bound, per cent of control (MAP4K4 (human)) | kinase still bound, per cent of control (MAPK10 (human)) [%] | kinase still bound, per cent of control (MAPK6 (human)) [%] | kinase still bound, per cent of control (MARK3 (human)) [%] | further results
1 | O=c1[nH]c2ccccc2n1C1CCN(Cc2ccc(-c3nc4cc5[nH]cnc5cc4nc3-c3ccccc3)cc2)CC1 | 84 | 76 | 92 | 100 | 80 | 96 | 88 | 65 | 77 | 100 | 100 | 89 | 93 | 100 | 94 | 80 | 80% and 100% | 71 | 100 | 72 | kinase still bound, per cent of control (MERTK (human)): 95%; kinase still bound, per cent of control (MST4 (human)): 100%; kinase still bound, per cent of control (MTOR (human)): 100%; kinase still bound, per cent of control (MYLK3 (human)): 100%; kinase still bound, per cent of control (NTRK1 (human)): 100%; kinase still bound, per cent of control (NUAK1 (human)): 100%; kinase still bound, per cent of control (PAK4 (human)): 74%; kinase still bound, per cent of control (PIK3CA (human)): 77%; kinase still bound, per cent of control [3]: 58%; kinase still bound, per cent of control (RPS6KA2 KD2 (human)): 100%; kinase still bound, per cent of control (RPS6KA4 KD2 (human)): 82%; kinase still bound, per cent of control (RPS6KA6 KD2 (human)): 100%; kinase still bound, per cent of control (SRC (human)): 81%; kinase still bound, per cent of control (STK10 (human)): 65%; kinase still bound, per cent of control (STK39 (human)): 100%; kinase still bound, per cent of control (TEC (human)): 100%; kinase still bound, per cent of control (TNK2 (human)): 100%; kinase still bound, per cent of control [4]: 66%; kinase still bound, per cent of control (ULK2 (human)): 88%; kinase still bound, per cent of control (YSK4 (human)): 75%
2 | CC1=C(C(=O)Nc2cc3cn[nH]c3cc2F)C(c2ccc(C(F)(F)F)cc2)CC(=O)N1 (stereo not given) | 87 | 97 | 79 | 72 | 98 | 81 | 84 | 40 | 36 | 76 | 80 | 77 | 60 | 89 | 71 | 80 | 78% | 88 | 98 | 100 | kinase still bound, per cent of control (MERTK (human)): 91%; kinase still bound, per cent of control (MST4 (human)): 24%; kinase still bound, per cent of control (MTOR (human)): 89%; kinase still bound, per cent of control (MYLK3 (human)): 92%; kinase still bound, per cent of control (NTRK1 (human)): 91%; kinase still bound, per cent of control (NUAK1 (human)): 28%; kinase still bound, per cent of control (PAK4 (human)): 85%; kinase still bound, per cent of control (PIK3CA (human)): 80%; kinase still bound, per cent of control [3]: 92%; kinase still bound, per cent of control (RPS6KA2 KD2 (human)): 94%; kinase still bound, per cent of control (RPS6KA4 KD2 (human)): 100%; kinase still bound, per cent of control (RPS6KA6 KD2 (human)): 85%; kinase still bound, per cent of control (SRC (human)): 83%; kinase still bound, per cent of control (STK10 (human)): 100%; kinase still bound, per cent of control (STK39 (human)): 86%; kinase still bound, per cent of control (TEC (human)): 19%; kinase still bound, per cent of control (TNK2 (human)): 88%; kinase still bound, per cent of control [4]: 20%; kinase still bound, per cent of control (ULK2 (human)): 85%; kinase still bound, per cent of control (YSK4 (human)): 50%
